From paper PMC8722715 (Frontiers in Cell and Developmental Biology, 2021)

How the values were obtained:
hNaV1.7 channel = molecular target: T1, hNaV1.7 channel (Homo sapiens, UniProt Q15858); test: Automated patch-clamp block of hNaV1.7 peak Na+ current in CHO cells; type: cell-based; settings: for IC50: CHO cells stably expressing hNaV1.7, SyncroPatch 384 PE whole-cell, holding -100 mV, -10 mV test pulse 50 ms every 5 s, room temperature 18-22°C, 0.3% BSA, steady state or end of 15-min application, mean, S.E.M. and n cells; for hNaV1.7/hNaV1.6 selectivity ratio: inverse ratio of the mean IC50 values on hNaV1.7 (CHO) and hNaV1.6 (HEK-293) of Table 1; for hNaV1.7 IC50 versus WT: ratio of analogue mean IC50 to HwTx-IV WT mean IC50 on hNaV1.7
T1 construct: expressed in transfected cells
T1 sequence (Q15858 whole entry): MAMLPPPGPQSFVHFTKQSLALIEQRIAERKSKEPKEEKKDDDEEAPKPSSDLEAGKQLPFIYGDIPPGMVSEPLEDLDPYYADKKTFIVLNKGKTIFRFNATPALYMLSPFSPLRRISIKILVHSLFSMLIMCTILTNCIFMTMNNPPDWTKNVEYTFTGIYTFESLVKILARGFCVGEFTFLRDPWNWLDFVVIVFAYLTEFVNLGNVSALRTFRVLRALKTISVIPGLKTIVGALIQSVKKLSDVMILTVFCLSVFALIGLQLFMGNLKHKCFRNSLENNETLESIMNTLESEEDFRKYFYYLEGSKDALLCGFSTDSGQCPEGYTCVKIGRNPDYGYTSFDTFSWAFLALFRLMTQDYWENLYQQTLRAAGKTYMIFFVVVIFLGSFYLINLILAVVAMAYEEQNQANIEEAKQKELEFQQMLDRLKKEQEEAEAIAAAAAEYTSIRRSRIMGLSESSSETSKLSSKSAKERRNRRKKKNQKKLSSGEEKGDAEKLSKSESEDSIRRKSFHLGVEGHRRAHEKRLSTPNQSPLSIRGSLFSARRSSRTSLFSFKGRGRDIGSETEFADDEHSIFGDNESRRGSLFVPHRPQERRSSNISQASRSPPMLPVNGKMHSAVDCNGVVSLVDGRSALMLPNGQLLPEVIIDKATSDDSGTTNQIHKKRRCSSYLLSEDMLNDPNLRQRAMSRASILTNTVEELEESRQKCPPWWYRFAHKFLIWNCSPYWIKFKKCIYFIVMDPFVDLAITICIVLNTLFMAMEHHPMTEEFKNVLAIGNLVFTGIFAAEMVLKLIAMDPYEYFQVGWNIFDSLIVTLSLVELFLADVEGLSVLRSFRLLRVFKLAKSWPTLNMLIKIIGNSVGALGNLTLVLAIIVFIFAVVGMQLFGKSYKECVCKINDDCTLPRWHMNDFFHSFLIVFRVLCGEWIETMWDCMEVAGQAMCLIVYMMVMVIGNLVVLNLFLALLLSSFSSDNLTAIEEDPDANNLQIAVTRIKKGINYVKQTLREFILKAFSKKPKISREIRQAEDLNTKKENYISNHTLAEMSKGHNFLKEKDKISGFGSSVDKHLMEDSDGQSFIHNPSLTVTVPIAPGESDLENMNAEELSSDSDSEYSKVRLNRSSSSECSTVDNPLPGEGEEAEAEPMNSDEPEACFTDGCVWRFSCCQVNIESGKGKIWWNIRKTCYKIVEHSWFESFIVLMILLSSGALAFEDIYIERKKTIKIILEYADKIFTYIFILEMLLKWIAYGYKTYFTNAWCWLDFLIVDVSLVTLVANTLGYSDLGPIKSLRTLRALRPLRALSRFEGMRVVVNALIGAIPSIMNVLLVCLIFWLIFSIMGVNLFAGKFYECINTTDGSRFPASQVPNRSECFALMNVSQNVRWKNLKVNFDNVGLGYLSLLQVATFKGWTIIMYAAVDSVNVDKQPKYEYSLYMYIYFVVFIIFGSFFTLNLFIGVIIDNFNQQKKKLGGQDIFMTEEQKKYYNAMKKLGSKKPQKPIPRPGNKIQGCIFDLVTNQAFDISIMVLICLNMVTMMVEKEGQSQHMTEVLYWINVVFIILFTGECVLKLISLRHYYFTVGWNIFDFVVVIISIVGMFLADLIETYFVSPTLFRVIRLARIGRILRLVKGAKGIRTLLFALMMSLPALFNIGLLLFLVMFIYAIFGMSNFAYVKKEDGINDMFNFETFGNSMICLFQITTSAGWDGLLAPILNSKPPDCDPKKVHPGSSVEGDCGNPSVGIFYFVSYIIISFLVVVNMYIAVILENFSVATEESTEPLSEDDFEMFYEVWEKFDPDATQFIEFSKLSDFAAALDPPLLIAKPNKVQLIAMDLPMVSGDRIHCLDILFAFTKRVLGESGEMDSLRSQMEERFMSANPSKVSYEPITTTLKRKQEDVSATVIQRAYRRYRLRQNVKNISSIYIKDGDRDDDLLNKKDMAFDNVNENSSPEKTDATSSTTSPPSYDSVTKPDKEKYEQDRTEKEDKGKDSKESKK
Method: (§1) CHO cells stably expressing the hNaV1.7 channel subtype were cultured in Dulbecco’s Modified Eagle’s Medium F-12 (DMEM/F12) supplemented with 10% fetal bovine serum, 2 mM glutamine, 200 μg/ml hygromycine B, 10 U/ml penicillin and 10 μg/ml streptomycin (Gibco, Grand Island, NY). HEK-293 cells stably expressing the hNaV1.6 channel subtype were cultured in Dulbecco’s Modified Eagle’s Medium (DMEM) supplemented with 10% fetal calf serum, 1 mM pyruvic acid, 4.5 g/L glucose, 2 mM glutamine, 800 μg/ml G418, 10 U/ml penicillin and 10 μg/ml streptomycin (Gibco, Grand Island, NY). All cell lines were incubated at 37°C in a 5% CO2 atmosphere. For electrophysiological recordings, cells were detached with trypsin, and floating single cells were diluted (∼300,000 cells/ml) in an extracellular solution containing (in mM): 140 NaCl, 4 KCl, 2 CaCl2, 1 MgCl2, 5 glucose and 10 HEPES (pH 7.4, osmolarity 298 mOsm), that was used throughout the experiments.
HwTx-IV analogues were investigated on CHO cells expressing hNav1.7 channel and HEK-293 cells expressing hNaV1.6 channel using the automated patch-clamp system from Nanion (SyncroPatch 384 PE; München, Germany). Chips with single-hole and high-resistance (∼6–7 MΩ) were used for both cell lines. Voltage pulses and whole-cell recordings were achieved using the PatchControl384 v1.5.2 software (Nanion) and the Biomek v1.0 interface (Beckman Coulter). Prior to recordings, dissociated cells were shaken at 200 RPM in a cell hotel reservoir at 10°C. After cell catching, sealing, whole-cell formation, liquid application, recording, and data acquisition were all performed sequentially and automatically. The intracellular solution contained (in mM): 110 CsF, 10 CsCl, 10 NaCl, 1 MgCl2, 1 CaCl2, 10 EGTA and 10 HEPES (pH 7.2, osmolarity 280 mOsm), and the extracellular solution was as described above. Whole-cell experiments were done at −100 mV holding potential and at room temperature (18–22°C), while currents triggered at either −10 or 0 mV test potential were sampled at 20 kHz. Stimulation frequency was set at 0.2 Hz. Each HwTx-IV analogue was prepared at various concentrations in the extracellular solution, itself supplemented with 0.3% of bovine serum albumin (BSA), also added in the control solution. […] Compound solutions were diluted 3 times in the patch-clamp recording well by adding 30–60 μl external solution, to reach the final reported concentration and the test volume of 90 μl. For establishing dose-response curves, the compounds were tested at a test potential of either −10 or 0 mV for 50 ms with a pulse every 5 s. Percentages of current inhibition were measured at steady-state of blockage or at the end of a 15-min application time.

hNaV1.6 channel = molecular target: T2, hNaV1.6 channel (Homo sapiens, UniProt Q9UQD0); test: Automated patch-clamp block of hNaV1.6 peak Na+ current in HEK-293 cells; type: cell-based; settings: for IC50: HEK-293 cells stably expressing hNaV1.6, SyncroPatch 384 PE whole-cell, holding -100 mV, 0 mV test pulse 50 ms every 5 s, room temperature 18-22°C, 0.3% BSA, steady state or end of 15-min application, mean, S.E.M. and n cells; for hNaV1.6 IC50 versus WT: ratio of analogue mean IC50 to HwTx-IV WT mean IC50 on hNaV1.6
T2 construct: expressed in transfected cells
T2 sequence (Q9UQD0 whole entry): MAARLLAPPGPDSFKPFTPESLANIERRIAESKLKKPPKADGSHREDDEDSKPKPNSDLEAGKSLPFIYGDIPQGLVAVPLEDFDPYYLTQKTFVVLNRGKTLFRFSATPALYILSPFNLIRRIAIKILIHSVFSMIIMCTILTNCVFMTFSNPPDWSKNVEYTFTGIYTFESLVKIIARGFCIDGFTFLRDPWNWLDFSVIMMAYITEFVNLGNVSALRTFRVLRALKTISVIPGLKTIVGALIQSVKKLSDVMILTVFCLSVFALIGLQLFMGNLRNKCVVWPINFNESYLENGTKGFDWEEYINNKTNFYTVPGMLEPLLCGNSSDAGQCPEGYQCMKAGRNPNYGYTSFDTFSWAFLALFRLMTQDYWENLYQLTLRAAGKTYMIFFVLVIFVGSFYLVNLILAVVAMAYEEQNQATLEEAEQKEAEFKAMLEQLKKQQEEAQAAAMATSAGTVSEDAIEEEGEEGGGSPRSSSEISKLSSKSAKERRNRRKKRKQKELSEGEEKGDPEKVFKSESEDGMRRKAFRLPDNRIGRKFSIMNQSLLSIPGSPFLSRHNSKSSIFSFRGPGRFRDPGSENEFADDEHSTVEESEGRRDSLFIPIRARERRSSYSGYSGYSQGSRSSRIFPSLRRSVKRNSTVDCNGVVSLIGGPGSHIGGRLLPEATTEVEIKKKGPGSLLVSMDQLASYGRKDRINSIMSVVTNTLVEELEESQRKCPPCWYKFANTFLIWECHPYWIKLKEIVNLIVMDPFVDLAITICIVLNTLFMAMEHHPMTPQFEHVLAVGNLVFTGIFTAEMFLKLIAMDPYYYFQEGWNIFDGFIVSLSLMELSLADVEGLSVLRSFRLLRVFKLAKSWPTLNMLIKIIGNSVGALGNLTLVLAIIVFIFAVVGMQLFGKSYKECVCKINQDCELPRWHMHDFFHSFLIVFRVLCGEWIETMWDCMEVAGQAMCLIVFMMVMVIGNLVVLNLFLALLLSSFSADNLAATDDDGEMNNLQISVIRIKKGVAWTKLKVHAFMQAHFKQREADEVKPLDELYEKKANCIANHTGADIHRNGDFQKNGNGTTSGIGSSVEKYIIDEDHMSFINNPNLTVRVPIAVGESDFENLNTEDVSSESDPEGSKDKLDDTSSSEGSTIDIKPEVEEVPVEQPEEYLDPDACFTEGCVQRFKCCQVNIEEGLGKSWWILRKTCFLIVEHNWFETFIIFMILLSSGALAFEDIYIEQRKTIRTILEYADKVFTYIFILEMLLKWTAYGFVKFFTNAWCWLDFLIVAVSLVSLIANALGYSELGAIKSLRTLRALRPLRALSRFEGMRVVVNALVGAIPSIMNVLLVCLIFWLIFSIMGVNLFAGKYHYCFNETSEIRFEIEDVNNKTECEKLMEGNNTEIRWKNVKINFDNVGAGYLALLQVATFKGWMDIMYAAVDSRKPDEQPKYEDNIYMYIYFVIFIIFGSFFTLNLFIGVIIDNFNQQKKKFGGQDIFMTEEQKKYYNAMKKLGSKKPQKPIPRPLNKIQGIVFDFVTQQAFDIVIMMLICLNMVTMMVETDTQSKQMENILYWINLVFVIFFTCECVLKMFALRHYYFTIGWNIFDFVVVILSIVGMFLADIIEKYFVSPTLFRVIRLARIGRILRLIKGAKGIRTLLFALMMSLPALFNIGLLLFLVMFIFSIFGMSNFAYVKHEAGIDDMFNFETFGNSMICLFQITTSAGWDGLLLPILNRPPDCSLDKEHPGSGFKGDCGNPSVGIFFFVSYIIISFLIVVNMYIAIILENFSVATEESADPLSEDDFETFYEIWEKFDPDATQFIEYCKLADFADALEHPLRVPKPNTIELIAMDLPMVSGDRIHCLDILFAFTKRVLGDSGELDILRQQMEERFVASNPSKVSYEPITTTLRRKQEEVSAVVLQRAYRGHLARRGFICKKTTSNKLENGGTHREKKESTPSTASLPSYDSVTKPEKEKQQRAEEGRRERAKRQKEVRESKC
Method: as §1
HwTx-IV analogues were investigated on CHO cells expressing hNav1.7 channel and HEK-293 cells expressing hNaV1.6 channel using the automated patch-clamp system from Nanion (SyncroPatch 384 PE; München, Germany). Chips with single-hole and high-resistance (∼6–7 MΩ) were used for both cell lines. Voltage pulses and whole-cell recordings were achieved using the PatchControl384 v1.5.2 software (Nanion) and the Biomek v1.0 interface (Beckman Coulter). Prior to recordings, dissociated cells were shaken at 200 RPM in a cell hotel reservoir at 10°C. After cell catching, sealing, whole-cell formation, liquid application, recording, and data acquisition were all performed sequentially and automatically. The intracellular solution contained (in mM): 110 CsF, 10 CsCl, 10 NaCl, 1 MgCl2, 1 CaCl2, 10 EGTA and 10 HEPES (pH 7.2, osmolarity 280 mOsm), and the extracellular solution was as described above. Whole-cell experiments were done at −100 mV holding potential and at room temperature (18–22°C), while currents triggered at either −10 or 0 mV test potential were sampled at 20 kHz. Stimulation frequency was set at 0.2 Hz. Each HwTx-IV analogue was prepared at various concentrations in the extracellular solution, itself supplemented with 0.3% of bovine serum albumin (BSA), also added in the control solution. The peptides were distributed in 384-well microplates according to the number of compounds to be tested (generally four), the concentration range defined from the IC50 of wild-type HwTx-IV, and the number of cells desired for each experimental condition. Compound solutions were diluted 3 times in the patch-clamp recording well by adding 30–60 μl external solution, to reach the final reported concentration and the test volume of 90 μl. For establishing dose-response curves, the compounds were tested at a test potential of either −10 or 0 mV for 50 ms with a pulse every 5 s. Percentages of current inhibition were measured at steady-state of blockage or at the end of a 15-min application time.

| SMILES | IC50 (hNaV1.7 channel) [nM] | hNaV1.7/hNaV1.6 selectivity ratio (hNaV1.7 channel) | hNaV1.7 IC50 versus WT (hNaV1.7 channel) | IC50 (hNaV1.6 channel) [nM] | hNaV1.6 IC50 versus WT (hNaV1.6 channel) |
| --- | --- | --- | --- | --- | --- |
| CC[C@H](C)[C@H](NC(=O)[C@H](CCC(N)=O)NC(=O)[C@H](Cc1ccc(O)cc1)NC(=O)[C@H](CCCCN)NC(=O)[C@@H]1CSSC[C@@H]2NC(=O)[C@H](CCC(N)=O)NC(=O)[C@H](CC(=O)O)NC(=O)[C@H](CC(N)=O)NC(=O)[C@H](CO)NC(=O)[C@@H]3CCCN3C(=O)[C@H](CC(N)=O)NC(=O)[C@@H]3CSSC[C@H](NC(=O)[C@H](C(C)C)NC(=O)[C@H](CC(C)C)NC(=O)[C@H](CCCCN)NC(=O)[C@H](CO)NC(=O)[C@H](CO)NC(=O)[C@H](CCCCN)NC(=O)[C@H](CSSC[C@H](NC(=O)[C@@H](N)CCC(=O)O)C(=O)N[C@@H](CC(C)C)C(=O)N[C@@H](CCCCN)C(=O)N[C@@H]([C@@H](C)CC)C(=O)N[C@@H](Cc4ccccc4)C(=O)N[C@@H](CCCCN)C(=O)N[C@@H](C)C(=O)N3)NC2=O)C(=O)N[C@@H](CO)C(=O)N[C@@H](CCC(N)=O)C(=O)N[C@@H](CCCCN)C(=O)N[C@@H]([C@@H](C)O)C(=O)N[C@@H](CCCNC(=N)N)C(=O)N[C@@H](Cc2c[nH]c3ccccc23)C(=O)N1)C(N)=O [HwTx-IV E^4K/R ^26Q] | 3.6 | less than 2 | 0.36 | 3.4 | 0.02 |
| CC[C@H](C)[C@H](NC(=O)[C@H](CCC(N)=O)NC(=O)[C@H](Cc1ccc(O)cc1)NC(=O)[C@H](CC(N)=O)NC(=O)[C@@H]1CSSC[C@@H]2NC(=O)[C@H](CCC(N)=O)NC(=O)[C@H](CC(=O)O)NC(=O)[C@H](CC(N)=O)NC(=O)[C@H](CO)NC(=O)[C@@H]3CCCN3C(=O)[C@H](CC(N)=O)NC(=O)[C@@H]3CSSC[C@H](NC(=O)[C@H](C(C)C)NC(=O)[C@H](CC(C)C)NC(=O)[C@H](CCCCN)NC(=O)[C@H](CO)NC(=O)[C@H](CO)NC(=O)[C@H](CCCCN)NC(=O)[C@H](CSSC[C@H](NC(=O)[C@@H](N)CCC(=O)O)C(=O)N[C@@H](CC(C)C)C(=O)N[C@@H](CCCNC(=N)N)C(=O)N[C@@H]([C@@H](C)CC)C(=O)N[C@@H](Cc4ccccc4)C(=O)N[C@@H](CCCCN)C(=O)N[C@@H](C)C(=O)N3)NC2=O)C(=O)N[C@@H](CO)C(=O)N[C@@H](CCCNC(=N)N)C(=O)N[C@@H](CCCCN)C(=O)N[C@@H]([C@@H](C)O)C(=O)N[C@@H](CCCNC(=N)N)C(=O)N[C@@H](Cc2c[nH]c3ccccc23)C(=O)N1)C(N)=O [HwTx-IV E^4R/K^32N] | > 1000 | – | >101 | > 333 | >1.5 |
| CC[C@H](C)[C@H](NC(=O)[C@H](CCC(N)=O)NC(=O)[C@H](Cc1ccc(O)cc1)NC(=O)[C@H](CCCCN)NC(=O)[C@@H]1CSSC[C@@H]2NC(=O)[C@H](CCC(N)=O)NC(=O)[C@H](CC(=O)O)NC(=O)[C@H](CC(N)=O)NC(=O)[C@H](CO)NC(=O)[C@@H]3CCCN3C(=O)[C@H](CC(N)=O)NC(=O)[C@@H]3CSSC[C@H](NC(=O)[C@H](C(C)C)NC(=O)[C@H](CC(C)C)NC(=O)[C@H](CCCCN)NC(=O)[C@H](CO)NC(=O)[C@H](CO)NC(=O)[C@H](C)NC(=O)[C@H](CSSC[C@H](NC(=O)[C@@H](N)CCC(=O)O)C(=O)N[C@@H](CC(C)C)C(=O)N[C@@H](CCC(=O)O)C(=O)N[C@@H]([C@@H](C)CC)C(=O)N[C@@H](Cc4ccccc4)C(=O)N[C@@H](CCCCN)C(=O)N[C@@H](C)C(=O)N3)NC2=O)C(=O)N[C@@H](CO)C(=O)N[C@@H](CCCNC(=N)N)C(=O)N[C@@H](CCCCN)C(=O)N[C@@H]([C@@H](C)O)C(=O)N[C@@H](CCCNC(=N)N)C(=O)N[C@@H](Cc2c[nH]c3ccccc23)C(=O)N1)C(N)=O [HwTx-IV K^18A] | 6.4 | above 46 | 0.65 | 416 | 1.84 |
| CC[C@H](C)[C@H](NC(=O)[C@H](CCC(N)=O)NC(=O)[C@H](Cc1ccc(O)cc1)NC(=O)[C@H](CC(N)=O)NC(=O)[C@@H]1CSSC[C@@H]2NC(=O)[C@H](CCC(N)=O)NC(=O)[C@H](CC(=O)O)NC(=O)[C@H](CC(N)=O)NC(=O)[C@H](CO)NC(=O)[C@@H]3CCCN3C(=O)[C@H](CC(N)=O)NC(=O)[C@@H]3CSSC[C@H](NC(=O)[C@H](C(C)C)NC(=O)[C@H](CC(C)C)NC(=O)[C@H](CCCCN)NC(=O)[C@H](CO)NC(=O)[C@H](CO)NC(=O)[C@H](CCCCN)NC(=O)[C@H](CSSC[C@H](NC(=O)[C@@H](N)CCC(=O)O)C(=O)N[C@@H](CC(C)C)C(=O)N[C@@H](CCC(=O)O)C(=O)N[C@@H]([C@@H](C)CC)C(=O)N[C@@H](Cc4ccccc4)C(=O)N[C@@H](CCCCN)C(=O)N[C@@H](C)C(=O)N3)NC2=O)C(=O)N[C@@H](CO)C(=O)N[C@@H](CCCNC(=N)N)C(=O)N[C@@H](CCCCN)C(=O)N[C@@H]([C@@H](C)O)C(=O)N[C@@H](CCCNC(=N)N)C(=O)N[C@@H](Cc2c[nH]c3ccccc23)C(=O)N1)C(N)=O [HwTx-IV K^32N] | 5750 | – | 581 | > 1000 | >4.4 |
| CC[C@H](C)[C@H](NC(=O)[C@H](CCC(N)=O)NC(=O)[C@H](Cc1ccc(O)cc1)NC(=O)[C@H](CCCCN)NC(=O)[C@@H]1CSSC[C@@H]2NC(=O)[C@H](CCC(N)=O)NC(=O)[C@H](CC(=O)O)NC(=O)[C@H](CC(N)=O)NC(=O)[C@H](CO)NC(=O)[C@@H]3CCCN3C(=O)[C@H](CC(N)=O)NC(=O)[C@@H]3CSSC[C@H](NC(=O)[C@H](C(C)C)NC(=O)[C@H](CC(C)C)NC(=O)[C@H](CCCCN)NC(=O)[C@H](CO)NC(=O)[C@H](CO)NC(=O)[C@H](CCCCN)NC(=O)[C@H](CSSC[C@H](NC(=O)[C@@H](N)CCC(=O)O)C(=O)N[C@@H](CC(C)C)C(=O)N[C@@H](CCC(=O)O)C(=O)N[C@@H]([C@@H](C)CC)C(=O)N[C@@H](Cc4ccccc4)C(=O)N[C@@H](CCCCN)C(=O)N[C@@H](C)C(=O)N3)NC2=O)C(=O)N[C@@H](CO)C(=O)N[C@@H](CCCNC(=N)N)C(=O)N[C@@H](CCCCN)C(=O)N[C@@H]([C@@H](C)O)C(=O)N[C@@H](CCCNC(=N)N)C(=O)N[C@@H](Cc2c[nH]c3ccccc23)C(=O)N1)C(=O)N[C@@H](CCCCN)C(=O)O [HwTx-IV K^36/CterCOOH] | 29 | above 46 | 2.93 | 1330 | 5.89 |
